Assays:
[1] = target: T1, hACC1 (Homo sapiens, UniProt Q13085); assay: ACC inhibitory assay (ADP-Glo luminescent ADP detection); type: biochemical; conditions: for inhibition at 0.1 µM: hACC1, 0.1 μM, mean of two independent experiments (Table 2), read-out: IRs (%) 0.1 μM; for IC50: hACC1, mean ± SD
T1 construct: purchased BPS Biosciences 50200
Experimental: The hACC1 inhibitory activity of target compounds was evaluated using the ADP-Glo^TM kinase assay according to our previous report. In brief, 4.5 µL of working solution containing recombinant ACC1 (BPS Biosciences, 50200) and 0.5 µL of diluted compound solution were added to a 384-well Optiplate plate (Perkin Elmer, 6007290, PerkinElmer, Waltham, MA, USA), and incubated at room temperature for 15 min. Then, 5 µL of substrate mixture was added to the 384-well plate to start the reaction. After incubating for 60 min at room temperature, 10 µL of ADP-Glo reagents were added to the 384-well plate, and incubated for another 40 min to deplete the remaining ATP. Finally, 20 µL of kinase detection reagents were added to the plate and incubated for 40 min to convert ADP to ATP. The luminescent signal of ATP was determined using an Envision multifunction reader (Perkin Elmer, 2104–0010, PerkinElmer, Waltham, MA, USA). The IC50 values were calculated using GraphPad Prism 5 software (GraphPad Software, La Jolla, CA, USA).

[2] = tested on: A549 cells; assay: MTT assay, A549; type: cell-based; conditions: Homo sapiens, 72 h, mean ± SD (n = 3)
Experimental: (§1) The cytotoxicity of target compounds was assessed by MTT assay. Briefly, cells were seeded in 96-well plates at a density of 2500–3000 per well and incubated for 24 h in a CO2 incubator. Then, the cells were treated with candidate compounds at seven different concentrations for 72 h. At the end of treatment, the MTT reagent (5 mg/mL) was added to determine the cell viability. After 4 h of incubation, the resulting medium was removed, and 100 µL of DMSO was added to dissolve the formed formazan. Finally, the absorbance at 550 nm was measured by a microplate reader (Varioskan LUX, […]), with the IC50 values calculated using GraphPad Prism 5 software (GraphPad Software, La Jolla, CA, USA).

[3] = tested on: HepG2 cells; assay: MTT assay, HepG2; type: cell-based; conditions: Homo sapiens, 72 h, mean ± SD (n = 3)
Experimental: as §1

[4] = tested on: MDA-MB-231 cells; assay: MTT assay, MDA-MB-231; type: cell-based; conditions: Homo sapiens, 72 h, mean ± SD (n = 3)
Experimental: as §1

[5] = Cell viability of non-cancerous HUVEC; type: cell-based, human; conditions: human, HUVEC cells (non-cancerous)
Experimental: (§2) To investigate the selectivity of the synthesised compounds towards cancer cells, the non-cancerous HUVEC cell line was selected for testing.
as §1

[6] = tested on: HUVEC; assay: Cell viability of non-cancerous HUVEC; type: cell-based, human; conditions: 10 μM
Experimental: as §2, §1

[7] = tested on: intracellular malonyl-CoA levels in MDA-MB-231 cells; assay: Measurement of malonyl-CoA levels (Elisa); type: cell-based, human; conditions: maximum test concentration, 48 h
Experimental: MDA-MB-231 cells were seeded on 6-well plates and treated with various concentrations of 6g and 6l for 48 h. Cells were collected, washed with PBS, and lysed with 1% Triton X-100. The lysates were centrifuged at 4 °C for 15 min. The malonyl-CoA levels were determined using Elisa assay kits (Ruixin Biotech, Beijing, China).

[8] = tested on: MDA-MB-231 cells; assay: Cell-cycle assay (PI flow cytometry); type: cell-based, human; conditions: 48 h
Experimental: MDA-MB-231 cells were seeded on 6-well plates (3 × 10^4 cells/well) and incubated with indicated concentrations of 6g (0.75, 1.5, and 3 µM) and 6l (0.1, 0.2, and 0.4 µM) for 48 h in a 5% CO2 incubator. Then, the cells were collected by trypsinization and centrifugation, followed by fixing in 70% pre-cooled ethanol overnight. Finally, the cells were stained with PI/RNase A according to the manual and measured by flow cytometer (Facs Canto II, Becton Dickinson, San Jose, CA’, USA)[35].

[9] = tested on: MDA-MB-231 cells; assay: Cell apoptosis assay (Annexin V-FITC/PI flow cytometry); type: cell-based, human; conditions: 48 h
Experimental: MDA-MB-231 cells were plated on 6-well plates (3 × 10^4 cells/well) and incubated with various concentrations of 6g (0.75, 1.5, and 3 µM) and 6l (0.1, 0.2, and 0.4 µM) for 48 h. Then, cells were harvested by trypsinization and centrifugation, followed by staining with annexin-V-FITC in binding buffer for 15 min protected from light. Subsequently, the cells were stained with PI, and the proportion of apoptotic cells was measured by flow cytometer (Facs Canto II, Becton Dickinson, San Jose, CA, USA)[36].

[10] = tested on: A549 cells; assay: MTT assay, A549; type: cell-based; conditions: Homo sapiens, single concentration of 10 µM (Figure S2), read-out: inhibitory rate, A549
[11] = tested on: HepG2 cells; assay: MTT assay, HepG2; type: cell-based; conditions: Homo sapiens, single concentration of 10 µM (Figure S2), read-out: inhibitory rate, HepG2
[12] = tested on: MDA-MB-231 cells; assay: MTT assay, MDA-MB-231; type: cell-based; conditions: Homo sapiens, single concentration of 10 µM (Figure S2), read-out: inhibitory rate, MDA-MB-231

Row | inhibition at 0.1 µM [1] | IC50 [1] | IC50 [2] | IC50 [3] | IC50 [4] | melting point | Compound | viability at 72 h, 10 µM [5] | IRs towards HUVEC [6] | reduction of intracellular malonyl-CoA levels compared to the control group [7] | inhibition at 10 µM [10] | inhibition at 10 µM [11] | inhibition at 10 µM [12] | further results
1 | 51.4% | 99.8 ± 3.7 nM | 1.1 ± 0.12 µM | 1.73 ± 0.55 µM | 1.5 ± 0.58 µM | 131.5 to 132.5 °C | CC(=O)NC(C)c1cc(-c2ccc(Oc3ccc(OCC4CC4)cc3)cc2)no1 (centres unmarked) [Compound 6g, N-(1-(3-(4-(4-(Cyclopropylmethoxy)phenoxy)phenyl)isoxazol-5-yl)ethyl)acetamide] | 87.3 ± 6.19% | less than 20% | ~23.59% | > 80% | > 80% | > 80% | cells at G0/G1 phase ([8]; 0.75 μM): 69.37%; cells at G2/M phase ([8]; 0.75 μM): 12.01%; cells at S phase ([8]; 0.75 μM): 18.62%; cells at G0/G1 phase ([8]; 1.5 μM): 73.66%; cells at G2/M phase ([8]; 1.5 μM): 10.51%; cells at S phase ([8]; 1.5 μM): 15.83%; cells at G0/G1 phase ([8]; 3 μM): 79.97%; cells at G2/M phase ([8]; 3 μM): 9.96%; cells at S phase ([8]; 3 μM): 10.08%; total percentage of the early and late apoptotic cells ([9]; 0.75 μM): 8.34%; total percentage of the early and late apoptotic cells ([9]; 1.5 μM): 13.83%; total percentage of the early and late apoptotic cells ([9]; 3 μM): 20.25%
2 | 37.9% | 279 ± 13.1 nM | 0.22 ± 0.07 µM | 0.26 ± 0.02 µM | 0.21 ± 0.01 µM | 164.5 to 165.5 °C | CC(NC(=O)Cc1ccccc1)c1cc(-c2ccc(Oc3ccccc3)cc2)no1 (centres unmarked) [Compound 6l, N-(1-(3-(4-Phenoxyphenyl)isoxazol-5-yl)ethyl)-2-phenylacetamide] | 89.5 ± 3.21% | less than 20% | ~25.85% | > 80% | > 80% | > 80% | cells at G0/G1 phase ([8]; 0.1 μM): 71.79%; cells at G2/M phase ([8]; 0.1 μM): 12.01%; cells at S phase ([8]; 0.1 μM): 16.20%; cells at G0/G1 phase ([8]; 0.2 μM): 76.79%; cells at G2/M phase ([8]; 0.2 μM): 8.79%; cells at S phase ([8]; 0.2 μM): 14.42%; cells at G0/G1 phase ([8]; 0.4 μM): 81.93%; cells at G2/M phase ([8]; 0.4 μM): 5.32%; cells at S phase ([8]; 0.4 μM): 12.76%; Q2 (upper right quadrant, late apoptotic cells) ([9]; 0.4 μM): 17.50%; Q3 (bottom right quadrant, early apoptotic cells) ([9]; 0.4 μM): 12.20%
